Legend:
[1] = test system: Pseudoperonospora cubensis; experiment: Controlling effect against cucumber downy mildew (spray on cucumber seedlings, 250 ppm); format: in vivo; conditions: 250 ppm spray, cucumber seedling 1-leaf stage, 7th day after inoculation; untreated 60 to 80%
Experimental: A solution of the compound in acetone was diluted with water to 250 ppm, and the solution was sprayed to the cucumber seedling (breed: Sagamihangbak, two per plastic pot having a diameter of 7.5 cm) at 1-leaf stage in an amount of 10 mL of the compound/pot. After air-drying, the pot was transferred to a moist chamber provided in the greenhouse, and inoculated by spray with a zoosporic suspension of Pseudoperonospora cubensis. On the 7th day after inoculation the infected area rate for the leaves was examined. Evaluation was carried out by the following criteria.
The infected area rate for untreated groups in the examination was 60 to 80%.

Phytophthora infestans = format: in vivo; conditions: 250 ppm spray, tomato seedling 4-leaf stage, 4th day after inoculation; untreated not less than 60%
Plasmopara viticola = experiment: Controlling effect against grape downy mildew (leaf disk immersion, 250 ppm); format: in vivo; conditions: grape leaf disk immersed 3 hours, 10th day after inoculation, untreated 60 to 70%
Experimental: The developed leaf of grape seedling (breed: Cabernet Sauvignon) grown in 1/2000 a pot was cut and prepared a leaf disk having a diameter of 32 mm. A solution of the compound in acetone was diluted with water to 250 ppm, and the leaf disk was immersed for 3 hours. The disk was taken from the agent solution, subjected to air-drying, and then inoculated by spray with a zoosporangia suspension of Plasmopara viticola. The test disk was incubated at 18° C. for 12 hours in a light-dark light cycle. On the 10th day after inoculation the infected area rate for the leaf disk was examined. Evaluation was carried out by the following criteria. The infected area rate for the untreated groups in the examination was 60 to 70%.

| Structure (SMILES) | Effect: controlling effect against cucumber downy mildew (infected area rate) [1] | Effect: controlling effect against tomato late blight (infected area rate) (Phytophthora infestans) | Effect: controlling effect against grape downy mildew (infected area rate) (Plasmopara viticola) | melting point |
| --- | --- | --- | --- | --- |
| CC(C)COC(=O)N[C@H](C(=O)N[C@H](CNC(=O)c1ccc(Cl)cc1)C(C)C)C(C)C [Compound No. 205, N-[1-(S)-[[(4-chlorobenzoyl)amino]methyl]-2-methylpropyl]3-methyl-2-(S)-[(2-methylpropyloxycarbonyl)amino]butyramide] | A (the infected area rate of less than 5%) | A (Infected area rate of less than 5%) | B (the infected area rate of 5% to less than 50%) | – |
| CCOC(=O)N[C@H](C(=O)N[C@H](CNC(=O)c1cc2ccccc2o1)C(C)(C)C)C(C)C [Compound No. 714, N-[1-(S)-[[(benzofuran-2-carbonyl)amino]methyl)-2,2-dimethylpropyl][3-methyl-2-(S)-[N-(ethyloxycarbonyl)amino]]butyramide] | A (the infected area rate of less than 5%) | A (Infected area rate of less than 5%) | A (the infected area rate of less than 5%) | – |
| CC(C)OC(=O)N[C@@H](C)C(=O)N[C@H](CNC(=O)c1cc2ccccc2o1)C(C)C [Compound No. 599, N-[1-(S)-[[(benzofuran-2-carbonyl)amino]methyl]-2-methylpropyl]2-(S)-[(1-methylethyloxycarbonyl)amino]propionamide] | A (the infected area rate of less than 5%) | A (Infected area rate of less than 5%) | A (the infected area rate of less than 5%) | 146.4 °C |
| CC(C)OC(=O)N[C@H](C(=O)N[C@H](CNC(=O)c1ccccc1Cl)C(C)C)C(C)C [Compound No. 196, N-[1-(S)-[[(2-chlorobenzoyl)amino]methyl]-2-methylpropyl]3-methyl-2-(S)-[(1-methylethyloxycarbonyl)amino]butyramide] | B (the infected area rate of 5% to less than 50%) | A (Infected area rate of less than 5%) | – | 196.8 °C |
| CC(C)[C@@H](CNC(=O)c1cc2ccccc2o1)NC(=O)C(C)(C)NC(=O)OC(C)(C)C | – | – | – | 140.5 °C |
| CC(CNC(=O)c1cc2ccccc2o1)NC(=O)[C@@H](NC(=O)OC(C)(C)C)C(C)C (mixture of isomers) [Compound No. 652, N-[2-(RS)-[[(benzofuran-2-carbonyl)amino]-1-methyl]ethyl][3-methyl-2-(S)-[N-(1,1-dimethylethyloxycarbonyl)amino]]butyramide] | A (the infected area rate of less than 5%) | A (Infected area rate of less than 5%) | B (the infected area rate of 5% to less than 50%) | – |
| CC(C)OC(=O)N[C@H](C(=O)N[C@H](CNC(=O)c1cccc(Cl)n1)C(C)C)C(C)C [Compound No. 953, N-[1-(S)-[[(6-chloropyridine-2-carbonyl)amino]methyl]-2-methylpropyl]3-methyl-2-(S)-[(1-methylethyloxycarbonyl)amino]butyramide] | A (the infected area rate of less than 5%) | A (Infected area rate of less than 5%) | A (the infected area rate of less than 5%) | 204.9 °C |
| CCC[C@H](NC(=O)OC(C)(C)C)C(=O)N[C@H](CNC(=O)c1ccc(C)cc1)C(C)C [compound 40, N-[2-methyl-1-(S)-[[(4-methylbenzoyl)amino]methyl]propyl]2-(S)-[(1,1-dimethylethyloxycarbonyl)amino]valeramide] | A (the infected area rate of less than 5%) | A (Infected area rate of less than 5%) | A (the infected area rate of less than 5%) | – |
| CC[C@H](C)[C@@H](CNC(=O)c1ccc(C)cc1)NC(=O)[C@@H](NC(=O)OC)C(C)C [Compound No. 306, N-[2-(S)-methyl-1-(S)-[[(4-methylbenzoyl)amino]methyl]butyl]3-methyl-2-(S)-[(methyloxycarbonyl)amino]butyramide] | A (the infected area rate of less than 5%) | A (Infected area rate of less than 5%) | A (the infected area rate of less than 5%) | – |
| CC(C)OC(=O)N[C@H](C(=O)N[C@H](CNC(=O)C1COc2ccccc2O1)C(C)C)C(C)C (mixture of isomers) [Compound No. 899, N-[2-methyl-1-(S)-[[[(1,4-benzodioxane)-2-(RS)-carbonyl]amino]methyl]propyl][3-methyl-2-(S)-[N-(1-methylethyloxycarbonyl)amino]]butyramide] | A (the infected area rate of less than 5%) | A (Infected area rate of less than 5%) | B (the infected area rate of 5% to less than 50%) | – |
| CCOC(=O)N[C@H](C(=O)N[C@H](CNC(=O)c1cc2ccccc2o1)C(C)C)C(C)C [Compound No. 772, N-[2-methyl-1-(S)-[[(benzofuran-2-carbonyl)amino]methyl]propyl][3-methyl-2-(S)-[N-(ethyloxycarbonyl)amino]]butyramide] | A (the infected area rate of less than 5%) | A (Infected area rate of less than 5%) | A (the infected area rate of less than 5%) | – |
| CC(C)OC(=O)N[C@H](C(=O)N[C@H](CNC(=O)c1cc2ccccc2o1)C(C)C)C(C)C [Compound No. 775, N-[2-methyl-1-(S)-[[(benzofuran-2-carbonyl)amino]methyl]propyl][3-methyl-2-(S)-[N-(1-methylethyloxycarbonyl)amino]]butyramide] | A (the infected area rate of less than 5%) | A (Infected area rate of less than 5%) | A (the infected area rate of less than 5%) | – |
| CC(C)COC(=O)N[C@H](C(=O)N[C@H](CNC(=O)c1cccs1)C(C)C)C(C)C [Compound No. 1020, N-[1-(S)-[[(thiophene-2-carbonyl)amino]methyl]-2-methylpropyl]3-methyl-2-(S)-[(2-methylpropyloxycarbonyl)amino]butyramide] | B (the infected area rate of 5% to less than 50%) | B (Infected area rate of 5% to less than 50%) | – | 204.9 °C |
| Cc1ccc(C(=O)NC[C@@H](NC(=O)C(NC(=O)OC(C)(C)C)C2CCOC2)C(C)C)cc1 (mixture of isomers) [Compound No. 69, N-[2-methyl-1-(S)-[[(4-methylbenzoyl)amino]methyl]propyl]2-(RS)-[(1,1-dimethylethyloxycarbonyl)amino]-2-(tetrahydrofuran-3-yl)acetamide] | A (the infected area rate of less than 5%) | A (Infected area rate of less than 5%) | B (the infected area rate of 5% to less than 50%) | – |
| C#CC[C@H](NC(=O)OCC(C)C)C(=O)N[C@H](CNC(=O)c1ccc(C)cc1)C(C)C [Compound No. 76, N-[2-methyl-1-(S)-[[(4-methylbenzoyl)amino]methyl]propyl]2-(S)-[(2-methylpropyloxycarbonyl)amino]-4-pentynamide] | – | A (Infected area rate of less than 5%) | – | 215.1 °C |
| CC(C)[C@H](NC(=O)OCc1ccccc1)C(=O)NC[C@@H](NC(=O)c1cc2ccccc2o1)C(C)C [Compound No. 678, N-[3-methyl-2-(S)-[(benzofuran-2-carbonyl)amino]butyl]2-(S)-[(benzyloxycarbonyl)amino]-3-methylbutyramide] | A (the infected area rate of less than 5%) | B (Infected area rate of 5% to less than 50%) | B (the infected area rate of 5% to less than 50%) | – |
| CCSC(=O)N[C@H](C(=O)N[C@H](CNC(=O)c1cc2ccccc2o1)C(C)C)C(C)C [Compound No. 793, N-[1-(S)-[[(benzofuran-2-carbonyl)amino]methyl]-2-methylpropyl][3-methyl-2-(S)-(ethylthiocarbonylamino)]butyramide] | A (the infected area rate of less than 5%) | A (Infected area rate of less than 5%) | A (the infected area rate of less than 5%) | – |

From patent US20070244153A1 (priority 2004, published 2007)
